Experimental data: patent US20140128380A1, “METHODS OF MODULATING THE ACTIVITY OF THE MC1 RECEPTOR AND TREATMENT OF CONDITIONS RELATED TO THIS RECEPTOR” (Mimetica Pty Ltd, priority 2009, published 2014)

Each compound was assayed against T1, human MC1R (hMC1R) (Homo sapiens, UniProt Q01726) (assay: Human MC1R radioligand binding assay (displacement of 125I-labeled NDP-MSH, Perkin Elmer hMC1R membranes)). Settings: displacement of [125I]NDP-MSH, compounds tested as trifluoroacetate or hydrochloride salts or free base.
T1 construct: purchased Perkin Elmer ES-195-M400UA
Experimental: Assessments of compound binding to human MC1R (hMC1R)) by displacement of an ^125I-labeled NDP-MSH receptor ligand peptide were performed essentially as described in the data sheets produced by Perkin Elmer to accompany their frozen hMC1R membranes (Perkin Elmer catalog number ES-195-M400UA).
[^125I] NDP-MSH: radiolabeled in house and purified by HPLC:
Na ^125I (0.5 mCi, 17.4 Ci/mg) was added to 50 μL sodium phosphate (50 mM, pH 7.4) in an eppendorf tube precoated with IODOGEN. After incubation for 10 mins the phosphate buffer containing the iodine was added to NDP-MSH (10 ul at 1 mg/mL) in a separate eppendorf tube. This was incubated for a further 10 mins. The iodinated NDP-MSH was purified by HPLC on a Zorbax SB 300 column using solvent A: 0.05% TFA and solvent B: 90% acetonitrile 0.045% TFA with a linear gradient, 0-67% B over 60 mins.
Perkin Elmer frozen hMC1 membranes: catalog number ES-195-M400UA, 0.4 mL/vial; 400 microassays/vial, 0.78 mg/mL protein concentration
Vials of frozen membranes were thawed rapidly immediately before use, diluted with binding buffer and vortexed. Resuspended membranes were kept on ice until they were added to the wells of the plate.
Assays were performed in 96 well polypropylene plates. […] This was incubated for 1 hr at 37° C.

T1 sequence (Q01726 whole entry): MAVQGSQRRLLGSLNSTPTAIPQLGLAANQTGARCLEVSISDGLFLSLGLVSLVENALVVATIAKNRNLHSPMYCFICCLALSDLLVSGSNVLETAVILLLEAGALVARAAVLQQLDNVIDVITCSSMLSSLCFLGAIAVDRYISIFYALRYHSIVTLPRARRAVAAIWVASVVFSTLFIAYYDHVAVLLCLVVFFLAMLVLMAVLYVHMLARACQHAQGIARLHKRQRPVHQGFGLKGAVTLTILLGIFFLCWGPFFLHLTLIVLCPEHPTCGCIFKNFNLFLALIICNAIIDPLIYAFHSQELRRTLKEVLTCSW

| Compound | IC50 [µM] |
| --- | --- |
| N=C(N)NCCC[C@@H]1N[C@H](CNC(=O)c2ccc(-c3ccccc3)cc2)CCN(CC(c2ccccc2)c2ccccc2)C1=O [Compound 108, N-(((3S,5S)-1-(2,2-diphenylethyl)-3-(3-guanidinopropyl)-2-oxo-1,4-diazepan-5-yl)methyl)biphenyl-4-carboxamide] | < 10 |
| CCC(CN1CC[C@@H](CNC(=O)/C=C/c2ccc(Cl)cc2)N[C@@H](CCN)C1=O)c1ccccc1 (stereo partly drawn) [Compound 153, (E)-N-(((3S,5S)-3-(2-aminoethyl)-2-oxo-1-(2-phenylbutyl)-1,4-diazepan-5-yl)methyl)-3-(4-chlorophenyl)acrylamide] | < 10 |
| CNC(=O)[C@H](Cc1ccc2ccccc2c1)N1CC[C@H](CNC(=O)[C@H](N)Cc2ccc(Cl)cc2)N[C@@H](CCCNC(=N)N)C1=O [Compound 174, (R)-2-amino-3-(4-chlorophenyl)-N-(((3S,5R)-3-(3-guanidinopropyl)-1-((S)-1-(methylamino)-3-(naphthalen-2-yl)-1-oxopropan-2-yl)-2-oxo-1,4-diazepan-5-yl)methyl)propanamide] | < 10 |
| O=C(NC[C@@H]1CCN(CC(c2ccccc2)c2ccccc2)C(=O)[C@H](CCN2CCCCC2)N1)c1ccc(Cl)c(Cl)c1 [Compound 137, 3,4-dichloro-N-(((3S,5S)-1-(2,2-diphenylethyl)-2-oxo-3-(2-(piperidin-1-yl)ethyl)-1,4-diazepan-5-yl)methyl)benzamide] | < 10 |
| NCCC[C@@H]1N[C@H](CNC(=O)c2ccc3cc(F)ccc3c2)CCN(CC(c2ccccc2)c2ccccc2)C1=O [Compound 122, N-(((3S,5S)-3-(3-aminopropyl)-1-(2,2-diphenylethyl)-2-oxo-1,4-diazepan-5-yl)methyl)-6-fluoro-2-naphthamide] | < 10 |
| (E)-N-(((3S,5S)-3-(aminomethyl)-1-(3,5-dichlorobenzyl)-2-oxo-1,4-diazepan-5-yl)methyl)-3-(4-chlorophenyl)acrylamide [Compound 150] | < 10 |
| NCCC[C@@H]1N[C@H](CNC(=O)c2ccc3ccccc3c2)CCN(CC2(c3ccccc3)CCCCC2)C1=O [Compound 144, N-(((3S,5S)-3-(3-aminopropyl)-2-oxo-1-((1-phenylcyclohexyl)methyl)-1,4-diazepan-5-yl)methyl)-2-naphthamide] | < 10 |
| NC[C@@H]1N[C@H](CNC(=O)/C=C/c2ccc(Cl)cc2)CCN(CC(c2ccccc2)c2ccccc2)C1=O [Compound 133, (E)-N-(((3S,5S)-3-(aminomethyl)-1-(2,2-diphenylethyl)-2-oxo-1,4-diazepan-5-yl)methyl)-3-(4-chlorophenyl)acrylamide] | < 10 |
| CC(C)(NC(=O)/C=C/c1ccc(Cl)cc1)[C@@H]1CCN(CC(c2ccccc2)c2ccccc2)C(=O)[C@H](CCN)N1 [Compound 164, (E)-N-(2-((3S,5S)-3-(2-aminoethyl)-1-(2,2-diphenylethyl)-2-oxo-1,4-diazepan-5-yl)propan-2-yl)-3-(4-chlorophenyl)acrylamide] | < 10 |
| O=C(/C=C/c1ccc(Br)cc1)NC[C@@H]1CCN(CC(c2ccccc2)c2ccccc2)C(=O)[C@H](CCN2CCCCC2)N1 [Compound 161, (E)-3-(4-bromophenyl)-N-(((3S,5S)-1-(2,2-diphenylethyl)-2-oxo-3-(2-(piperidin-1-yl)ethyl)-1,4-diazepan-5-yl)methyl)acrylamide] | < 10 |
| N=C(N)NCCC[C@@H]1N[C@H](CNC(=O)c2ccc3ccccc3c2)CCN(CCC2CC3CCC2C3)C1=O (stereo partly drawn) [Compound 131, N-(((3S,5S)-1-(2-(bicyclo[2.2.1]heptan-2-yl)ethyl)-3-(3-guanidinopropyl)-2-oxo-1,4-diazepan-5-yl)methyl)-2-naphthamide] | < 10 |
| NCC[C@@H]1N[C@H](CNC(=O)/C=C/c2ccc(Cl)cc2)CCN(Cc2cc(Cl)cc(Cl)c2)C1=O [Compound 141, (E)-N-(((3S,5S)-3-(2-aminoethyl)-1-(3,5-dichlorobenzyl)-2-oxo-1,4-diazepan-5-yl)methyl)-3-(4-chlorophenyl)acrylamide] | < 10 |
| NCC[C@@H]1N[C@H](CNC(=O)c2ccc(Cl)c(Cl)c2)CCN(CC(c2ccccc2)c2ccccc2)C1=O [Compound 135, N-(((3S,5S)-3-(2-aminoethyl)-1-(2,2-diphenylethyl)-2-oxo-1,4-diazepan-5-yl)methyl)-3,4-dichlorobenzamide] | < 10 |
| COc1c(C(=O)NC[C@@H]2CCN(CC(c3ccccc3)c3ccccc3)C(=O)[C@H](CCCNC(=N)N)N2)ccc2ccccc12 [Compound 115, N-(((3S,5S)-1-(2,2-diphenylethyl)-3-(3-guanidinopropyl)-2-oxo-1,4-diazepan-5-yl)methyl)-1-methoxy-2-naphthamide] | < 10 |
| N=C(N)NCCC[C@@H]1N[C@H](CNC(=O)c2ccc3ccccc3c2)CCN(CC2c3ccccc3-c3ccccc32)C1=O [Compound 126, N-(((3S,5S)-1-((9H-fluoren-9-yl)methyl)-3-(3-guanidinopropyl)-2-oxo-1,4-diazepan-5-yl)methyl)-2-naphthamide] | < 10 |
| NCCC[C@@H]1N[C@H](CNC(=O)c2ccc(Cl)c(Cl)c2)CCN(CC(c2ccccc2)c2ccccc2)C1=O [Compound 123] | < 10 |
| N=C(N)NCCC[C@@H]1N[C@H](CNC(=O)c2cnc3ccccc3c2)CCN(CC(c2ccccc2)c2ccccc2)C1=O [Compound 109, N-(((3S,5S)-1-(2,2-diphenylethyl)-3-(3-guanidinopropyl)-2-oxo-1,4-diazepan-5-yl)methyl)quinoline-3-carboxamide] | < 10 |
| O=C(/C=C/c1ccc(F)cc1)NC[C@@H]1CCN(CC(c2ccccc2)c2ccccc2)C(=O)[C@H](CCCNC2CCCCC2)N1 [Compound 127, (E)-N-(((3S,5S)-3-(3-(cyclohexylamino)propyl)-1-(2,2-diphenylethyl)-2-oxo-1,4-diazepan-5-yl)methyl)-3-(4-fluorophenyl)acrylamide] | < 10 |
| O=C(NC[C@@H]1CCN(CC(c2ccccc2)c2ccccc2)C(=O)[C@H](CCCNC2CCCCC2)N1)c1ccc2ccccc2c1 [Compound 124, N-(((3S,5S)-3-(3-(cyclohexylamino)propyl)-1-(2,2-diphenylethyl)-2-oxo-1,4-diazepan-5-yl)methyl)-2-naphthamide] | < 10 |
| Cc1ccc(/C=C/C(=O)NC[C@@H]2CCN(CC(c3ccccc3)c3ccccc3)C(=O)[C@H](CCCN)N2)cc1 [Compound 120, (E)-N-(((3S,5S)-3-(3-aminopropyl)-1-(2,2-diphenylethyl)-2-oxo-1,4-diazepan-5-yl)methyl)-3-p-tolylacrylamide] | < 10 |
| CCC(CC)CN1CC[C@@H](CNC(=O)/C=C/c2ccc(Cl)cc2)N[C@@H](CCN)C1=O [Compound 146, (E)-N-(((3S,5S)-3-(2-aminoethyl)-1-(2-ethylbutyl)-2-oxo-1,4-diazepan-5-yl)methyl)-3-(4-chlorophenyl)acrylamide] | < 10 |
| CN(C[C@@H]1CCN(CC(c2ccccc2)c2ccccc2)C(=O)[C@H](CCCN)N1)C(=O)c1ccc2cc(Br)ccc2c1 [Compound 104, N-(((3S,5S)-3-(3-aminopropyl)-1-(2,2-diphenylethyl)-2-oxo-1,4-diazepan-5-yl)methyl)-6-bromo-N-methyl-2-naphthamide] | < 10 |
| CNC(=O)[C@H](Cc1ccc2ccccc2c1)N1CC[C@H](CNCc2ccc(F)cc2)N[C@@H](CCCNC(=N)N)C1=O [Compound 143, (S)-2-((3S,5R)-5-((4-fluorobenzylamino)methyl)-3-(3-guanidinopropyl)-2-oxo-1,4-diazepan-1-yl)-N-methyl-3-(naphthalen-2-yl)propanamide] | < 10 |
| N=C(N)NCCC[C@@H]1N[C@H](CNC(=O)c2cccc(Oc3ccccc3)c2)CCN(CC(c2ccccc2)c2ccccc2)C1=O [Compound 111, N-(((3S,5S)-1-(2,2-diphenylethyl)-3-(b3-guanidinopropyl)-2-oxo-1,4-diazepan-5-yl)methyl)-3-phenoxybenzamide] | < 10 |
| CC[C@H](CN1CC[C@@H](CNC(=O)c2ccccc2-c2ccc(Cl)cc2)N[C@@H](CCN2CCCCC2)C1=O)c1ccccc1 [Compound 179, 4′-chloro-N-(((3S,5S)-2-oxo-1-((S)-2-phenylbutyl)-3-(2-(piperidin-1-yl)ethyl)-1,4-diazepan-5-yl)methyl)biphenyl-2-carboxamide] | < 10 |
| O=C(/C=C/c1ccc(Cl)cc1)NC[C@@H]1CCN(CC(c2ccccc2)c2ccccc2)C(=O)[C@H](CN2CCCCC2)N1 [Compound 134, (E)-3-(4-chlorophenyl)-N-(((3S,5S)-1-(2,2-diphenylethyl)-2-oxo-3-(piperidin-1-ylmethyl)-1,4-diazepan-5-yl)methyl)acrylamide] | < 10 |
| CNC(=O)[C@H](Cc1ccc2ccccc2c1)N1CC[C@H](CNC(=O)/C=C/c2ccc(Cl)cc2)N[C@@H](CCCNC(=N)N)C1=O [Compound 175, (E)-3-(4-chlorophenyl)-N-(((3S,5R)-3-(3-guanidinopropyl)-1-((S)-1-(methylamino)-3-(naphthalen-2-yl)-1-oxopropan-2-yl)-2-oxo-1,4-diazepan-5-yl)methyl)acrylamide] | < 10 |
